Here are results for 4 compounds from the Kinase Knowledgebase extract (Sharma et al. 2016).

The target of one experiment is EGFR (human) (UniProt P00533). To be noted: concentration not given here.
A further experiment concerns the target CDK2 (human) (UniProt P24941). Kind of experiment: Enzyme Assay. The note with it: concentration not given here.

Chain of EGFR (human) (P00533 whole entry, looked up): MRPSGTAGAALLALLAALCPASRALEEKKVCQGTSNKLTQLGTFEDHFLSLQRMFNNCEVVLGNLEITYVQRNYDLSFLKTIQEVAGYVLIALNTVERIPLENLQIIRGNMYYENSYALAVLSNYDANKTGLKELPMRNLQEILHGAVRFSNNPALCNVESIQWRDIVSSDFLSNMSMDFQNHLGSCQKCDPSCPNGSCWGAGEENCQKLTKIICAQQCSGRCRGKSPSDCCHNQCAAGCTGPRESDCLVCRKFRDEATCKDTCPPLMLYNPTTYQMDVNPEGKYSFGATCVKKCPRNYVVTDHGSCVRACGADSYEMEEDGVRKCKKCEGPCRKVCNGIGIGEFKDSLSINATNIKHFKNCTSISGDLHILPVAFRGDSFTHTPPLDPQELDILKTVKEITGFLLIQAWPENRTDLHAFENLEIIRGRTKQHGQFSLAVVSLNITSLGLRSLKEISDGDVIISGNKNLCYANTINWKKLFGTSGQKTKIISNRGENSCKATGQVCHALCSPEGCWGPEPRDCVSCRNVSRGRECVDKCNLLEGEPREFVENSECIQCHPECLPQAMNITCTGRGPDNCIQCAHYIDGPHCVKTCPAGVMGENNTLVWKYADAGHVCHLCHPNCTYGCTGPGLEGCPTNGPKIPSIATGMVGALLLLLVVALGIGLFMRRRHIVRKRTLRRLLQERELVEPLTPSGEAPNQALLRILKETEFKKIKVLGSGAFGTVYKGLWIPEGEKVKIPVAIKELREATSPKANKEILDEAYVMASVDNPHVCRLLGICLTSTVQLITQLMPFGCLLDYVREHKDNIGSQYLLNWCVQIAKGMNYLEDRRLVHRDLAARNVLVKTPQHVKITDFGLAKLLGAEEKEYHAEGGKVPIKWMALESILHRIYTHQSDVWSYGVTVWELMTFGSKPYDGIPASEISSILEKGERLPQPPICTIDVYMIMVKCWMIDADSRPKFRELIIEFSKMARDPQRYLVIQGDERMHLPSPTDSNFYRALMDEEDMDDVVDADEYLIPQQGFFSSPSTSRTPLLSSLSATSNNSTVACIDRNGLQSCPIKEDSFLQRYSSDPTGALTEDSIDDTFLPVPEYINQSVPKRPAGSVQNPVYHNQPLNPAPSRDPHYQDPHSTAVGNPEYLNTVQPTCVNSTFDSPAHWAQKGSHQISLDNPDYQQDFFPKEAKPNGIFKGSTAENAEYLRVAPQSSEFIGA

`COc1cc(C2=C(c3c(C)[nH]c4ccccc34)C(=O)NC2=O)cc(OC)c1OC` yielded an inhibition on EGFR (human) of 5%.

Take `COc1ccc(C2=C(c3c[nH]c4ccccc34)C(=O)NC2=O)cc1OC`: the inhibition at CDK2 (human) is 7%; against EGFR (human), 27%.

`COc1ccc2[nH]c3c4c(OC)c(OC)c(OC)cc4c4c(c3c2c1)C(=O)NC4=O`: at EGFR (human), the inhibition is 3%.

In turn, `COc1cc2c3c(c4c5ccccc5n(C)c4c2c(OC)c1OC)C(=O)NC3=O` gave an inhibition against CDK2 (human) of 58%.

The inhibition is the share of the control response that was lost under treatment.
